For 78 compounds, RP-LC retention time results are on record in the METLIN SMRT retention time set (Domingo-Almenara et al. 2019).

Each structure is given as a SMILES string.

The data set in a line: gradient 5% acetonitrile 3 min, to 50% in 2 min, to 85% in 15 min, held 3 min, 100 µL/min. Conditions: column: Zorbax Extend-C18 2.1 x 50 mm; eluents: water / acetonitrile, 0.1% formic acid. An outline of the steps: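 Retention times come from adduct peaks that were picked computationally and then checked by hand. The standards, pure and pooled in mixtures of ~100 molecules, were run on a Zorbax Extend-C18 column (2.1 × 50 mm, 1.8 μm) at 100 μL/min with water and acetonitrile, each with 0.1% formic acid. Detection was by quadrupole time-of-flight mass spectrometry in positive and negative ionization mode, with a dead volume of 40 μL and a dwell volume of 900 μL.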
As to `Cc1ccc(Sc2nccnc2N2CCCC(C(=O)N3CCN(c4ccccn4)CC3)C2)cc1` (stereo not drawn), the RP-LC retention time is 768 s. As to `O=C(NC1CCN(c2cc(N3CCOCC3)cnn2)C1)c1ccc(Cl)s1` (stereo not drawn), the RP-LC retention time was 610 s. To `COc1ccc(OC)c(-c2[nH]ncc2CN2CC(F)(F)C[C@H]2CN2CCCCC2)c1` belongs 632 s; to `CC(O)(CS(=O)(=O)c1ccc(F)cc1)C(=O)Nc1ccc(C#N)c(C(F)(F)F)c1` (stereo not drawn), 992 s. Regarding `O=C(c1ccc(F)c(F)c1)N1CCN(c2cc(-c3cccs3)[nH]n2)CC1`, the RP-LC retention time came to 758 s. The value for `CC(=O)N1CCc2cc(N3CC(C(=O)Nc4cccc(F)c4)CC3=O)ccc21` (stereo not drawn) was 710 s; that for `COc1cccc2c1OC1(C)CC2C(S(=O)(=O)c2ccc(C)c(C)c2)C(=O)N1C` (stereo not drawn) was 931 s. To `CCc1noc(NC(C)=O)c1-c1ccc(C)c(S(=O)(=O)Nc2cc(Cl)ccc2C)c1` belongs 891 s; to `CCCN1CCN(c2cc(C(=O)O)c3cc(NS(=O)(=O)c4ccccc4)ccc3n2)CC1`, 1110 s; to `CCn1c(=O)oc2cc(S(=O)(=O)N3CCN(C(=O)C4(c5ccccc5)CC4)CC3)ccc21`, 848 s. On to `COc1ccc(OC)c(NC(=O)c2[nH]c(C)c(S(=O)(=O)N3CCCCC3)c2C)c1`, for which the RP-LC retention time came out at 1020 s. Compound `Cc1ccc(C)c(N2CCN(C(=O)C3CCCN(c4ncnc5c4nc4n5CCCCC4)C3)CC2)c1` (stereo not drawn) showed an RP-LC retention time of 1050 s. The compound `O=C(CN1C(=O)C2CCCCN2c2ccc(S(=O)(=O)N3CCCC3)cc21)NCc1ccccn1` (stereo not drawn) gave an RP-LC retention time of 654 s. The compound `COc1ccc(NC(=O)Cn2nc3n(c2=O)CCCCC3)cc1` had an RP-LC retention time of 709 s. With `C=CCOc1ccc(S(C)(=O)=O)cc1`, the RP-LC retention time came to 814 s.

As to `Cc1cccc2nc(-c3c(F)cccc3Cl)c(Nc3ccc4c(c3)OCCO4)n12`, the RP-LC retention time was 678 s. Take `Cc1ccc(N2CC(c3nc(-c4cccc(-c5ccnn5C)c4)no3)CC2=O)cc1` (stereo not drawn): the RP-LC retention time turned out to be 605 s. Turning to `CN(C)C(=O)c1cn(C2CN(S(=O)(=O)c3ccc4c(c3)CCC4)C2)nn1`, the RP-LC retention time is 774 s.

Consider `CN(C)CCN(Cc1ccccc1)C(=O)Cn1c(=O)oc2ccccc21`, for which the RP-LC retention time worked out at 645 s.

`Cc1ccc(C)c(CNC(=O)Cn2c(=O)c3nnc(C)n3c3ncccc32)c1` registered an RP-LC retention time of 712 s. In turn, `O=C(c1ccco1)N1CCCN(c2ccc(=O)n(-c3ccccc3)n2)CC1` gave an RP-LC retention time of 684 s.

On to `COc1cccc(CNC(=O)N2CCC(N3CCN(Cc4cccc(F)c4)C(=O)C3=O)CC2)c1`, for which the RP-LC retention time is 688 s. `CCc1nc2cc(N3CCC(C(=O)Nc4ccc(OC)c(OC)c4)CC3)cnc2nc1CC`: the RP-LC retention time was found to be 766 s.

Compound `CCOC(=O)C1CCCN(S(=O)(=O)c2cc(C(=O)N3CCCCC3)n(C)c2C)C1` (stereo not drawn) had an RP-LC retention time of 858 s.

Take `Cc1ccc(CNC(=O)c2cn(-c3ccc(NC(=O)C4CC4)cn3)cn2)cc1`: the RP-LC retention time is 773 s. The value for `OCCOCCNCc1ccc(-c2ccccc2F)o1` was 616 s. The compound `CCN1C(=O)c2ccccc2Oc2ccc(C(=O)NC3CCCC3)cc21` gave an RP-LC retention time of 891 s. Consider `Cc1noc(-c2ccc(OC3CN(C(=O)c4ccco4)C3)cc2)n1`, for which the RP-LC retention time amounted to 789 s. For `COc1cc(Cl)c(C)cc1NC(=O)CSc1ccc(N2CCCC(C(=O)NC3CC3)C2)nn1` (stereo not drawn), the RP-LC retention time is 774 s.

For the compound `CCS(=O)(=O)c1nc2ccc(NS(=O)(=O)c3ccccc3Cl)cc2s1`, the RP-LC retention time turned out to be 858 s.

`Cc1ccc(-c2csc(NC(=O)CSc3nc4c(cc3C#N)CCCC4)n2)cc1` came in with an RP-LC retention time of 1290 s. The compound `Cc1ccc(C)c(Cn2nnc(C(=O)O)c2-c2ccncc2)c1` yielded an RP-LC retention time of 650 s. Regarding `CCCN1C(=O)C2CCC(=O)N2c2ccc(C(=O)Nc3ccc4c(c3)OCCO4)cc21` (stereo not drawn), the RP-LC retention time was 770 s.

Consider `CCCCNc1nnc(-c2nnc(C)o2)c2ccccc12`, for which the RP-LC retention time was 637 s. As to `CCC1CN(C(=O)N2CCC(C(=O)NCCN3CCOCC3)CC2)c2cc(C)ccc2O1` (stereo not drawn), the RP-LC retention time was 632 s. The value for `Cc1ccc(-n2nc(C)c3c(=O)n(CC(=O)NCc4ccccc4Cl)ccc32)cc1` was 872 s; that for `O=c1n(Cc2ccc(F)cc2)nc2c(S(=O)(=O)N3CCCCC3)cccn12` was 887 s. In turn, `CCOC(=O)C1CCCN(C(=O)Cc2c(C(=O)O)c(C)cn2CC)C1` (stereo not drawn) gave an RP-LC retention time of 727 s. On to `COc1ccc(N2CCN(C(=O)CC(C)S(=O)(=O)c3ccc4c(c3)CCN4C(C)=O)CC2)cc1` (stereo not drawn), for which the RP-LC retention time came to 754 s. In turn, `CCC1Oc2ccc(S(=O)(=O)N3CCC(C(=O)N(C)C4CCCCC4)CC3)cc2NC1=O` (stereo not drawn) showed an RP-LC retention time of 917 s. The compound `CC(=O)N1c2ccc(S(=O)(=O)N3CCCCCC3)cc2CC1C(=O)NCCCc1ccccc1` (stereo not drawn) had an RP-LC retention time of 975 s. For the compound `O=C(Nc1cccc(Cl)c1)N1CCc2nc(-c3ccc(Cl)cc3)ncc2C1`, the RP-LC retention time stood at 1150 s. Take `CCN(CC)CCc1nc(-c2ccccc2)no1`: the RP-LC retention time turned out to be 674 s.

As to `COc1cccc(NC(=O)Nc2ccc(CC(N)=O)cc2)c1OC`, the RP-LC retention time was 636 s.

As to `CCn1ccc2oc(C)c(C(=O)N3CCN(c4ccc(Cl)cc4)CC3)c2c1=O`, the RP-LC retention time turned out to be 854 s. As to `O=C(Cc1ccccc1)N1CCN(c2nc3cccnc3o2)CC1`, the RP-LC retention time came to 686 s. The value for `Cc1nc(C)c(C(=O)N2CCC3(CC2)CCC(O)(CN(C)C)CC3)s1` was 555 s; that for `CN1C(=O)c2cc(C(=O)NCc3cccc(F)c3)nn2CC1(C)C(=O)NCc1ccc(F)cc1` (stereo not drawn) was 760 s. Consider `COC(=O)c1ccc(CN2N=C(C(=O)N3CCC(C)CC3)S(=O)(=O)c3ccccc32)o1`, for which the RP-LC retention time is 891 s. As for `O=C(NCc1ccccc1)N1CCN(Cc2nc3cc(-c4ccccc4)ccc3o2)CC1`, the RP-LC retention time came to 825 s. In turn, `O=C(C1CC1)N1CCc2sc(S(=O)(=O)NCc3ccc(Cl)cc3)cc2C1` displayed an RP-LC retention time of 856 s. `CCCNC(=O)c1ccc(CN2CC(=O)N3CCCCC3C2=O)cc1` (stereo not drawn) yielded an RP-LC retention time of 1120 s.

For `O=C(Cc1c[nH]c2ccccc12)NC1CCN(c2cc(-c3ccc(Cl)cc3)[nH]n2)C1` (stereo not drawn), the RP-LC retention time worked out at 743 s.

On to `COc1ccc(CC(=O)Nc2nnc(SCc3nnc(-c4ccccc4)o3)s2)cc1`, for which the RP-LC retention time came to 848 s. `COC(=O)c1cccc(Nc2ncccc2S(N)(=O)=O)c1` yielded an RP-LC retention time of 777 s. `O=C(NCc1ccc2c(c1)OCO2)C1CCN(C(=O)c2ccccc2)CC1` had an RP-LC retention time of 706 s. To `COc1ccc(CNC(=O)C2(c3ccc(NS(C)(=O)=O)cc3)CCCCC2)cc1` belongs 859 s; to `Cc1ccc2c(Sc3ccc(Cl)cc3)c(C(=O)N3CCN(c4ccccn4)CC3)[nH]c2c1`, 894 s; to `N#Cc1ccc2c(c1)N(CCCN1CCC(O)CC1)c1ccccc1S2`, 743 s. Take `CCc1cccc(NC(=O)C2CCc3nc(N4CCOCC4)ncc3C2)c1` (stereo not drawn): the RP-LC retention time was determined as 839 s. `CSc1ccc(NC(=O)c2cn3c(n2)CCCC3)cc1`: the RP-LC retention time came out at 624 s. Regarding `O=C(NOCC1CC1)c1ccc(F)c(F)c1Nc1ccc(I)cc1Cl`, the RP-LC retention time is 1150 s. Compound `COc1ccc(CNC(=O)Nc2cccc(-c3ccc(N4CCOCC4)nn3)c2)cc1` yielded an RP-LC retention time of 655 s. On to `CC(C)n1c(N2CCN(C(=O)C3CC(=O)N(CCc4ccccc4)C3)CC2)cc(=O)n(C(C)C)c1=O` (stereo not drawn), for which the RP-LC retention time is 786 s.

In turn, `CN(C)C(=O)c1ccc2oc(CN3CCN(C(=O)NC4CCCCC4)CC3)nc2c1` showed an RP-LC retention time of 614 s. To `CCc1ccc(S(=O)(=O)N2CCc3c(c(-c4nnc(-c5ccc(F)cc5)o4)nn3C)C2)cc1` belongs 1050 s; to `O=C(NC1CCCC1)C1CCCN(c2ccc(=O)n(-c3ccc(F)cc3)n2)C1` (stereo not drawn), 763 s. Regarding `Cc1ccc2c(c1)C(O)(CC(=O)c1ccc(NC(=O)C3CCCCC3)cc1)C(=O)N2` (stereo not drawn), the RP-LC retention time turned out to be 766 s.

In the case of `O=C(NC1CCCCCCC1)C1CCN(S(=O)(=O)c2cc(C(=O)N3CCOCC3)cs2)CC1`, the RP-LC retention time is 838 s. Consider `COc1ccc2[nH]cc(CCNC(=O)Cc3ccc(F)cc3)c2c1`, for which the RP-LC retention time was 790 s. On to `CC1CCN(c2cc3c(cc2NC(=O)C(C)(C)C)n(C)c(=O)c(=O)n3C)CC1`, for which the RP-LC retention time was 1010 s. In the case of `CC(C)CCNC(=O)Cn1c(=O)c2cnc(-c3ccc(Cl)cc3)nc2n(C)c1=O`, the RP-LC retention time came to 740 s. The compound `Cc1cc(NC(=O)NCC(=O)N2CCc3ccccc32)ccc1Br` registered an RP-LC retention time of 959 s. Compound `CCc1ccc(NC(=O)Cc2nc(C)c(C(=O)NCc3ccc(F)cc3)s2)cc1` showed an RP-LC retention time of 946 s. In the case of `CC1(C(=O)NCc2ccc(F)cc2)CCCN(S(=O)(=O)c2ccc(F)cc2F)C1` (stereo not drawn), the RP-LC retention time is 963 s. The value for `O=C(O)c1ccc(Nc2nc(-c3ccc(Br)cc3)cs2)cc1` was 989 s; that for `COc1ccc(NC(=O)Cn2c(=O)c3cc(C)nn3c3ncccc32)cc1Cl` was 724 s; that for `COc1c(C(=O)NC2CC2)sc2ccc(Cl)cc12` was 965 s.
